Source: patent US6914045B2, “Glycopeptide antibiotics” (Wyeth Holdings Corporation, priority 2001, dated 2005)
Converted amounts (≈) assume the structure as drawn.

Columns and labels:
Assay in all cases: in vitro antibacterial evaluation, MIC by broth dilution
Type in all cases: cell-based
Escherichia coli = conditions: 18 hours at 35° C.
Outline: (§1)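 Inoculum 5×10^5 CFU/mL; concentrations 64 to 0.06 μg/mL; MIC defined as lowest inhibitory level. Conducted by broth dilution under NCCLS guidelines.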

Staphylococcus sp. = conditions: broth dilution, 18 hours at 35° C.
Outline: as §1

Streptococcus sp. = conditions: broth dilution, 18 hours at 35° C.
Outline: as §1

Enterococcus sp. = conditions: broth dilution, 18 hours at 35° C.
Outline: as §1

MIC Escherichia coli (ATCC 25922) (Escherichia coli; strain ATCC 25922): 32 µg/mL (≈ 22 µM) | MIC Escherichia coli (GC 4559) (Escherichia coli; strain GC 4559): 32 µg/mL (≈ 22 µM) | MIC Escherichia coli (GC 4560) (Escherichia coli; strain GC 4560): 2 µg/mL (≈ 1.37 µM) | MIC Staphylococcus aureus (ATCC 29213) (Staphylococcus sp.): 4 µg/mL (≈ 2.75 µM) | MIC Staphylococcus aureus (GC 1131) (Staphylococcus sp.): 2 µg/mL (≈ 1.37 µM) | MIC Staphylococcus aureus (GC 3051) (Staphylococcus sp.): 2 µg/mL (≈ 1.37 µM) | MIC Staphylococcus aureus (GC 3053) (Staphylococcus sp.): 2 µg/mL (≈ 1.37 µM) | MIC Staphylococcus aureus (GC 4541) (Staphylococcus sp.): 2 µg/mL (≈ 1.37 µM) | MIC Staphylococcus aureus (GC 4542) (Staphylococcus sp.): 2 µg/mL (≈ 1.37 µM) | MIC Staphylococcus aureus (GC 4544) (Staphylococcus sp.): 2 µg/mL (≈ 1.37 µM) | MIC Staphylococcus aureus (GC 4545) (Staphylococcus sp.): 2 µg/mL (≈ 1.37 µM) | MIC Staphylococcus aureus (GC 1131) (Staphylococcus sp.; inoculum 5×10^5 CFU/mL, strain GC 1131): 2 µg/mL (≈ 1.37 µM) | MIC Staphylococcus aureus (ATCC 29213) (Staphylococcus sp.; strain ATCC 29213): 4 µg/mL (≈ 2.75 µM) | MIC Staphylococcus aureus (GC 3051) (Staphylococcus sp.; strain GC 3051): 2 µg/mL (≈ 1.37 µM) | MIC Staphylococcus aureus (GC 3053) (Staphylococcus sp.; strain GC 3053): 2 µg/mL (≈ 1.37 µM) | MIC Staphylococcus aureus (GC 4541) (Staphylococcus sp.; strain GC 4541): 2 µg/mL (≈ 1.37 µM) | MIC Staphylococcus aureus (GC 4542) (Staphylococcus sp.; strain GC 4542): 2 µg/mL (≈ 1.37 µM) | MIC Staphylococcus aureus-SMITH (GC 4543) (Staphylococcus sp.; strain GC 4543): 2 µg/mL (≈ 1.37 µM) | MIC Staphylococcus aureus (GC 4544) (Staphylococcus sp.; strain GC 4544): 2 µg/mL (≈ 1.37 µM) | MIC Staphylococcus aureus (GC 4545) (Staphylococcus sp.; strain GC 4545): 2 µg/mL (≈ 1.37 µM) | MIC Coagulase Negative Staphylococcus (GC 4547) (Staphylococcus sp.; strain GC 4547): 2 µg/mL (≈ 1.37 µM) | MIC Coagulase Negative Staphylococcus (GC 4548) (Staphylococcus sp.; strain GC 4548): 1 µg/mL (≈ 0.687 µM) | MIC Coagulase Negative Staphylococcus (GC 4549) (Staphylococcus sp.; strain GC 4549): 1 µg/mL (≈ 0.687 µM) | MIC Coagulase Negative Staphylococcus (GC 4551) (Staphylococcus sp.; strain GC 4551): 4 µg/mL (≈ 2.75 µM) | MIC Coagulase Negative Staphylococcus (GC 6257) (Staphylococcus sp.; strain GC 6257): 1 µg/mL (≈ 0.687 µM) | MIC Staphylococcus aureus-SMITH (GC 4543) (Staphylococcus sp.; strain SMITH GC 4543): 2 µg/mL (≈ 1.37 µM) | MIC Streptococcus agalactiae (GC 4564) (Streptococcus sp.; Streptococcus agalactiae (GC 4564)): <0.06 µg/mL | MIC Streptococcus pneumoniae (ATCC 6301) (Streptococcus sp.; Streptococcus pneumoniae (ATCC 6301)): <0.06 µg/mL | MIC Streptococcus pneumoniae (GC 1894) (Streptococcus sp.; Streptococcus pneumoniae (GC 1894)): <0.06 µg/mL | MIC Streptococcus pneumoniae (GC 4565) (Streptococcus sp.; Streptococcus pneumoniae (GC 4565)): <0.06 µg/mL | MIC Streptococcus pyogenes (GC 4563) (Streptococcus sp.; Streptococcus pyogenes (GC 4563)): <0.06 µg/mL | MIC Streptococcus pneumoniae (ATCC 6301) (Streptococcus sp.; strain ATCC 6301): <0.06 µg/mL | MIC Streptococcus pneumoniae (GC 1894) (Streptococcus sp.; strain GC 1894): <0.06 µg/mL | MIC Streptococcus pyogenes (GC 4563) (Streptococcus sp.; strain GC 4563): <0.06 µg/mL | MIC Streptococcus agalactiae (GC 4564) (Streptococcus sp.; strain GC 4564): <0.06 µg/mL | MIC Streptococcus pneumoniae (GC 4565) (Streptococcus sp.; strain GC 4565): <0.06 µg/mL | MIC Enterococcus avium (GC 4558) (Enterococcus sp.; Enterococcus avium (GC 4558)): 2 µg/mL (≈ 1.37 µM) | MIC Enterococcus faecalis (ATCC 29212) (Enterococcus sp.; Enterococcus faecalis (ATCC 29212)): 2 µg/mL (≈ 1.37 µM) | MIC Enterococcus faecalis (GC 2242) (Enterococcus sp.; Enterococcus faecalis (GC 2242)): 2 µg/mL (≈ 1.37 µM) | MIC Enterococcus faecalis (GC 2691) (Enterococcus sp.; Enterococcus faecalis (GC 2691)): 2 µg/mL (≈ 1.37 µM) | MIC Enterococcus faecalis (GC 3059) (Enterococcus sp.; Enterococcus faecalis (GC 3059)): 2 µg/mL (≈ 1.37 µM) | MIC Enterococcus faecalis (GC 4552) (Enterococcus sp.; Enterococcus faecalis (GC 4552)): 2 µg/mL (≈ 1.37 µM) | MIC Enterococcus faecalis (GC 4553) (Enterococcus sp.; Enterococcus faecalis (GC 4553)): 2 µg/mL (≈ 1.37 µM) | MIC Enterococcus faecalis (GC 4554) (Enterococcus sp.; Enterococcus faecalis (GC 4554)): 2 µg/mL (≈ 1.37 µM) | MIC Enterococcus faecalis (GC 6189) (Enterococcus sp.; Enterococcus faecalis (GC 6189)): 2 µg/mL (≈ 1.37 µM) | MIC Enterococcus faecium (GC 2243) (Enterococcus sp.; Enterococcus faecium (GC 2243)): 2 µg/mL (≈ 1.37 µM) | MIC Enterococcus faecium (GC 4556) (Enterococcus sp.; Enterococcus faecium (GC 4556)): 2 µg/mL (≈ 1.37 µM) | MIC Enterococcus faecium (GC 4557) (Enterococcus sp.; Enterococcus faecium (GC 4557)): 2 µg/mL (≈ 1.37 µM) | MIC Enterococcus faecalis (ATCC 29212) (Enterococcus sp.; strain ATCC 29212): 2 µg/mL (≈ 1.37 µM) | MIC Enterococcus faecalis (GC 2242) (Enterococcus sp.; strain GC 2242): 2 µg/mL (≈ 1.37 µM) | MIC Enterococcus faecium (GC 2243) (Enterococcus sp.; strain GC 2243): 2 µg/mL (≈ 1.37 µM) | MIC Enterococcus faecalis (GC 2691) (Enterococcus sp.; strain GC 2691): 2 µg/mL (≈ 1.37 µM) | MIC Enterococcus faecalis (GC 3059) (Enterococcus sp.; strain GC 3059): 2 µg/mL (≈ 1.37 µM) | MIC Enterococcus faecalis (GC 4552) (Enterococcus sp.; strain GC 4552): 2 µg/mL (≈ 1.37 µM) | MIC Enterococcus faecalis (GC 4553) (Enterococcus sp.; strain GC 4553): 2 µg/mL (≈ 1.37 µM) | MIC Enterococcus faecalis (GC 4554) (Enterococcus sp.; strain GC 4554): 2 µg/mL (≈ 1.37 µM) | MIC Enterococcus faecium (GC 4556) (Enterococcus sp.; strain GC 4556): 2 µg/mL (≈ 1.37 µM) | MIC Enterococcus faecium (GC 4557) (Enterococcus sp.; strain GC 4557): 2 µg/mL (≈ 1.37 µM) | MIC Enterococcus avium (GC 4558) (Enterococcus sp.; strain GC 4558): 2 µg/mL (≈ 1.37 µM) | MIC Enterococcus faecalis (GC 6189) (Enterococcus sp.; strain GC 6189): 2 µg/mL (≈ 1.37 µM)
Compound: CC(c1ccccc1)C1NC(=O)CNC(=O)C(CO)NC(=O)C(C(O)C2CNC(=N)N2C2OC(CO)C(O)C(O)C2O)NC(=O)C(C(O)C2CNC(=N)N2)NC(=O)C(Cc2ccc(OC3OC(CO)C(OC4OC5COC(CC67CC8CC(CC(C8)C6)C7)OC5C(O)C4O)C(O)C3O)cc2)NC1=O (stereo not shown) [Example 129]
MIC Staphylococcus haemolyticus (GC 4546) (Staphylococcus sp.; strain GC 4546): 2 µg/mL (≈ 1.37 µM)
